In patent EP2319852A1, “Triphenylphosphine derivatives” (Universitat Autònoma De Barcelona, priority 2009, dated 2011):
Blank lines part the entries; values can stand above or below the molecule they belong to.

Assays:
[1] = Determination of water solubility of the sodium salts of the phosphines; type: physicochemical; conditions: saturated supernatant evaporated to dryness and weighed
Procedure: 3. Determination of water solubility of trifluoromethylated sulfonated phosphines of Formula (I)
Oversaturated aqueous solutions of the sodium salts of the phosphines of Formula (I) were prepared. The supernatant solution was ultracentrifugated, and then filtered through a nylon filter, a measured weight of this solution was evaporated to dryness and the solid residue was weighed.

[2] = Aerial oxidation of the phosphines in aqueous solution, followed by 31P{1H} NMR; type: physicochemical; conditions: for Oxidation percentage over time: distilled water, 5.10^-2 mM, open to air, vigorous stirring; for oxidize in the air: 5·10^-2 mM aqueous solution, room temperature
Procedure: 4. Aerial oxidation of the phosphines in aqueous solution
Solutions in distilled water (1 mL, 5.10^-2 mM ) of the phosphines represented below were prepared with the aim of comparing their inertness against aerial oxidation. The solutions were kept opened to air under vigorous stirring for 120 h. Aliquots were taken and analyzed by ^31P{^1H} NMR in order to quantify the oxidation progress.

SMILES: O=S(=O)([O-])c1cccc(P(c2ccccc2)c2ccccc2)c1.[Na+] [NaTPPMS, triphenylphosphine monosulfonate]
- Oxidation percentage over time ([2]; 0 h): 0%
- oxidize in the air ([2]; 16 h): about 5%
- Oxidation percentage over time ([2]; 16 h): 4%
- Oxidation percentage over time ([2]; 40 h): 25%
- Oxidation percentage over time ([2]; 120 h): 68%

SMILES: O=S(=O)([O-])c1cccc(P(c2ccccc2)c2cccc(S(=O)(=O)[O-])c2)c1.[Na+].[Na+] [Na2TPPDS]
- Oxidation percentage over time ([2]; 0 h): 0%
- oxidize in the air ([2]; 16 h): about 5%
- Oxidation percentage over time ([2]; 16 h): 6%
- Oxidation percentage over time ([2]; 40 h): 33%
- Oxidation percentage over time ([2]; 120 h): 100%

SMILES: O=S(=O)(O)c1cccc(P(c2ccc(C(F)(F)F)cc2)c2ccc(C(F)(F)F)cc2)c1 [Phosphine 4]
- solubility thermodynamic [1]: 2 to 12 mg/mL

SMILES: O=S(=O)(O)c1cccc(P(c2cccc(S(=O)(=O)O)c2)c2ccccc2C(F)(F)F)c1 [Phosphine 3]
- solubility thermodynamic [1]: 30 mg/mL

Now from value to molecule:

- solubility thermodynamic [1]: > 1000 mg/mL
SMILES: O=S(=O)(O)c1cccc(P(c2ccccc2)c2cc(C(F)(F)F)cc(C(F)(F)F)c2)c1 (centres unmarked) [Phosphine 8]

- solubility thermodynamic [1]: 500 mg/mL
SMILES: O=S(=O)(O)c1cccc(P(c2ccccc2)c2ccc(C(F)(F)F)cc2)c1 (centres unmarked) [Phosphine 7]

- solubility thermodynamic [1]: 210 mg/mL
SMILES: O=S(=O)(O)c1cccc(P(c2ccccc2)c2ccccc2C(F)(F)F)c1 (centres unmarked) [Phosphine 9]

- solubility thermodynamic [1]: 2 to 12 mg/mL
SMILES: O=S(=O)(O)c1cccc(P(c2ccccc2C(F)(F)F)c2ccccc2C(F)(F)F)c1 [Phosphine 6]

- solubility thermodynamic [1]: 2 to 12 mg/mL
SMILES: O=S(=O)(O)c1cccc(P(c2cc(C(F)(F)F)cc(C(F)(F)F)c2)c2cc(C(F)(F)F)cc(C(F)(F)F)c2)c1 [Phosphine 5]
